Assay results from US20240374763A1, “DIAGNOSIS AND MONITORING USING EXTRADOMAIN-B FIBRONECTIN TARGETED PROBES” (Case Western Reserve University, priority 2020, published 2024).
No end group written: not given here.

Key:
Type in all cases: in vivo, mice
RKO-DR tumors = experiment: MRMI of EDB-FN with MT218, RKO-DR xenografts
Description: (§1) Nude athymic mice (6-week-old nu/nu females) were purchased from The Jackson Laboratory (Bar Harbor, […]) and housed in the Animal Facility at CWRU. All the animal experiments were performed according to the protocol approved by the IACUC of CWRU. For assessment of drug resistance, 2 drug-resistant and 2 non-drug-resistant models were set up. About 3-4×10^6 DLD-1, RKO, DLD1-DR, and RKO-DR cells suspended in Matrigel-PBS mixture (1:1) were subcutaneously injected in the left flanks of nude mice (100 μL per mouse, 5 mice per group×4 models=20 mice). After 9 days when the tumors reached 100-200 mm3, MRMI was performed on the 4 xenograft models with 40 μmol/kg dose of MT218. The animals were then euthanized, and the tumors were harvested for post-mortem histology and IHC.
MT218 was synthesized as previously described. Ayat, N. R., et al., ACS Med Chem Lett, 2018. 9(7): p. 730-735. Briefly, click reaction between alkynyl-ZD2 and N3-Gd(HP-DO3A) was performed in the presence of CuSO4 and ascorbate at room temperature, followed by FLASH chromatography purification and validation of MT218 by MALDI-TOF mass spectrometry (m.w. 1443). For assessment of drug resistance and therapeutic monitoring, MRMI was performed in a 3T MRS 3000 scanner (MR Solutions, Surrey, UK) with a mouse short quad coil. The mice were anesthetized with isofluorane and tail vein catheter was setup. T1-weighted MR images were obtained before (pre-contrast) and 25 min after injection (post-contrast) of 40 μmol/kg dose of MT218 [ZD2-N3—Gd(HP-DO3A)]. The following two sequences were used with respiratory gating: axial fast spin echo (FSE) (TR=305 ms, TE=11 ms, FA=90°, FOV=40 mm×40 mm, slice thickness=1 mm, slice number=15, Nav=2, matrix=256×256) and coronal FSE (TR=305 ms, TE=11 ms, FA=90°, FOV=90 mm×90 mm, slice thickness=1 mm, slice number=20, Nav=1, matrix=248×512). […] Contrast-to-noise ratios (CNRs) were calculated as (mean tumor intensity—mean muscle intensity)/standard deviation of noise. […]

LNCaP-CXCR2 tumors = experiment: MRMI with MT218, LNCaP-CXCR2 xenografts; conditions: 0.04 mmol Gd/kg, 20 min post-injection
From the text: (§2) Xenograft models were established by subcutaneous flank injections in athymic nu/nu mice for the 4 prostate cancer cells and tested with MRMI using 0.04 mmol Gd/kg of MT218.

PC3-DR tumors = experiment: MRMI with MT218, PC3-DR xenografts; conditions: 0.04 mmol Gd/kg, 20 min post-injection, p=0.07
From the text: as §2

DLD-1 tumors = experiment: MRMI of EDB-FN with MT218, DLD-1 xenografts; conditions: 40 μmol/kg MT218, 25 min post-injection
Description: as §1
MT218 was synthesized as previously described. Ayat, N. R., et al., ACS Med Chem Lett, 2018. 9(7): p. 730-735. Briefly, click reaction between alkynyl-ZD2 and N3-Gd(HP-DO3A) was performed in the presence of CuSO4 and ascorbate at room temperature, followed by FLASH chromatography purification and validation of MT218 by MALDI-TOF mass spectrometry (m.w. 1443). […] Contrast-to-noise ratios (CNRs) were calculated as (mean tumor intensity—mean muscle intensity)/standard deviation of noise. […]

[1] = system: Capan-1 flank tumor xenografts; experiment: MRMI of Capan-1 flank tumor xenografts
Description: For flank xenograft models, 4×10^6 Capan-1 cells suspended in 100 μL of a 6 mg/mL Matrigel (Corning, Corning, NY) solution was injected subcutaneously into the flank of eight-week-old female nu/nu mice. The tumor bearing mice were imaged after tumor volumes exceeded 300 mm^3. For orthotopic intrapancreatic models, the pancreas of four-week-old female nu/nu mice were surgically exposed and 1×10^6 BxPC3-GFP-Luc or PANC-1-GFP-Luc cells suspended in 100 μL of an Matrigel solution (6 mg/mL) was injected into the pancreatic tissue. Prior to imaging, growth of tumor was verified by bioluminescence imaging with intraperitoneal injection of d-luciferin on IVIS Spectrum system (Perkin Elmer, Waltham, MA).
Flank tumor-bearing mice were anesthetized and a tail vein catheter inserted. MR image acquisition was performed on a 7T Biospin (Bruker, Billerica, MA) preclinical small animal scanner with a volume radiofrequency coil. Axial images were obtained using a multi-spin multi-echo (MSME) MRI sequence (500 ms TR, 8.1 ms TE, 900 FA, 4.50 cm×4.50 cm FOV, 1.50 mm slice thickness, 16 slices, 2 averages, 200×200 matrix, 0.0225×0.0225 cm/pixel resolution). Contrast agents were injected at a dose of 0.1 mmol/kg (100 μL) via the tail vein catheter, followed by a saline flush. Images of the tumors were acquired before contrast and at various time points after contrast administration. Gd(HP-DO3A) was used as a control.
Image files were exported and analyzed in Horus software. ROIs were drawn in the tumor, liver, kidney, and muscle. Muscle ROIs were taken from muscle, with other structures (liver, kidney, tumor) identified after comparison with published images and comparison with anatomical landmarks or bioluminescent imaging. Size of ROIs drawn for image analysis are summarized in Supplemental Table S1. The contrast-to-noise ratio of the tumor (CNR) was calculated using the following equation, where σ_noise is the standard deviation of intensities from an ROI drawn outside of the mouse body: […]

[2] = RKO-DR over RKO tumors, 40 μmol/kg MT218

For “ZD2-N3-Gd(HP-DO3A) (TVRTSAD; also: conjugated to Gd(HP-DO3A) by click reaction of alkynyl-ZD2 with N3-Gd(HP-DO3A), residue of attachment not given here, Gd complex) [MT218, EDB-FN-targeted MRI contrast agent; ZD2 peptide conjugated to the clinical macrocyclic agent Gd(HP-DO3A)]”, the “higher CNRs over the non-resistant tumors” value (RKO-DR tumors; [2]) was 1.8 fold, the “increase in CNR over the non-resistant tumors” value (RKO-DR tumors; [2]) was 84% and the “higher CNRs over pre-contrast” value (RKO-DR tumors; RKO-DR tumors, 40 μmol/kg MT218, 25 min post-injection) was 2.6 fold. For the same substance, the “increase of CNR” value (LNCaP-CXCR2 tumors) was about 3 fold, the “CNR over the pre-contrast” value (PC3-DR tumors) was 1.6 fold and the “increase in CNRs over the pre-contrast” value (DLD-1 tumors) was 1.53 fold. The “increase of contrast to noise ratio (CNR)” value ([1]; 0.1 mmol/kg, MT218 at 15 minutes post-injection, maintained at least 35 minutes, Gd(HP-DO3A) for the duration of the experiment) was 4.84 fold and the “CNR compared to the clinical agent Gd(HP-DO3A)” value ([1]; Capan-1 flank) was 273 % CNR of control.
